Laboratory results from article PMC8958325 (iScience, 2022).

Key:
Rad6–Rad18 interaction = Rad6–Rad18 interaction (Homo sapiens, UniProt P63146); test: Rad6–Rad18 interaction Alpha assay; type: binding; details: for disruption of the Rad6–Rad18 interaction: Alpha assay
Mms2–Ubc13 = Mms2–Ubc13 (Homo sapiens, UniProt P61088+Q15819); test: Mms2–Ubc13∼ubiquitin thioester formation gel-based assay; type: biochemical; details: at 100 μM, silver-stained gel
HeLa cells = test: Cell survival; type: cell-based; details: Homo sapiens, 24 h, read-out: IC50 (μM) for cell survival
Rad6 [1] = biological target: T1, Rad6 (Homo sapiens, UniProt P63146); test: Microscale thermophoresis, binding to GFP-Rad6
Rad18 [2] = biological target: Rad18 (Homo sapiens, UniProt Q9NS91); test: Microscale thermophoresis, binding to GFP-Rad18; details: low concentrations used for the Rad6-binding study
Rad6–Ubr1 interaction = Rad6–Ubr1 interaction (Homo sapiens, UniProt P63146); test: Rad6–Ubr1 interaction Alpha assay; type: binding
Rad18 [3] = biological target: Rad18 (Homo sapiens, UniProt P63146); test: biochemical; type: biochemical; details: for inhibition of Rad18 autoubiquitination: Alpha assay
Uba1 = biological target: T2, Uba1 (Homo sapiens, UniProt P22314); test: Uba1∼ubiquitin thioester formation Alpha assay; type: biochemical; details: for inhibition of Uba1∼ubiquitin thioester formation: Alpha assay
T2 sequence (P22314 1-1058): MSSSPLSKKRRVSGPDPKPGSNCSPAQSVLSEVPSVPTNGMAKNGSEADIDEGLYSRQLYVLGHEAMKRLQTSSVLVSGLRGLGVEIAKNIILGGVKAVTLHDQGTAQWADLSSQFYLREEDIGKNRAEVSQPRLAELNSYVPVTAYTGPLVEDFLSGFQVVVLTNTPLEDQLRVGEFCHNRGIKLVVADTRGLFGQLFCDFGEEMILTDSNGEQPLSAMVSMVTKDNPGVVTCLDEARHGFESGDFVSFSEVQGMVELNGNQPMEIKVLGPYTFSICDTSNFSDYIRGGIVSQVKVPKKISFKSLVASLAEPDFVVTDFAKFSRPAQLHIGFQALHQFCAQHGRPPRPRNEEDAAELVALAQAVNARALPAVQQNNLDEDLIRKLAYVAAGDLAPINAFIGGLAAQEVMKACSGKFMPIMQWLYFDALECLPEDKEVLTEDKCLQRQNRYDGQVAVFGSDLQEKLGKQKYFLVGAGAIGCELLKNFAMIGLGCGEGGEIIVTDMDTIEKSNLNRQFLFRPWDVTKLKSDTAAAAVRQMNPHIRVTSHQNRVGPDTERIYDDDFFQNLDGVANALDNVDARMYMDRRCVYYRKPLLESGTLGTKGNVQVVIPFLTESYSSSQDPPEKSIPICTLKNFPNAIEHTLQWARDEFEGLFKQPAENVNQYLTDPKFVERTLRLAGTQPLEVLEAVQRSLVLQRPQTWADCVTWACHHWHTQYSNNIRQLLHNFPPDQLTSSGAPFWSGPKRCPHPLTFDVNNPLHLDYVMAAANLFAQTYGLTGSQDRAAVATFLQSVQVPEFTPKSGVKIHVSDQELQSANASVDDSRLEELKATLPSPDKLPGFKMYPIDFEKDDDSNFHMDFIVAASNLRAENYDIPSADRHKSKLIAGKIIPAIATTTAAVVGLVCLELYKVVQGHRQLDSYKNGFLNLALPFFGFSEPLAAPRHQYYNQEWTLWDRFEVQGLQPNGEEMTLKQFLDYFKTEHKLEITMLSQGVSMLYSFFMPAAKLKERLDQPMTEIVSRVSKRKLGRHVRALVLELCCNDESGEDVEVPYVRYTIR

Rad6 [4] = biological target: T1, Rad6; test: biochemical; type: biochemical; details: for inhibition of formation of the Rad6∼ubiquitin thioester conjugate: Alpha assay
PCNA ubiquitination = test: Alpha assay for overall PCNA ubiquitination; type: biochemical, human; details: for IC50: read-out: IC50 PCNA–Ub, SE and 95% CI in cell

Sequence of Mms2–Ubc13 (P61088 whole entry): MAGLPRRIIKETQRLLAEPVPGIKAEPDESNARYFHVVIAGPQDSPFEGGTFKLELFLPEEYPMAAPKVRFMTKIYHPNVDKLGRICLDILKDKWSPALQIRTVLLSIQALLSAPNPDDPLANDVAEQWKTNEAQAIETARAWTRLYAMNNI
Sequence of Mms2–Ubc13 (Q15819 whole entry): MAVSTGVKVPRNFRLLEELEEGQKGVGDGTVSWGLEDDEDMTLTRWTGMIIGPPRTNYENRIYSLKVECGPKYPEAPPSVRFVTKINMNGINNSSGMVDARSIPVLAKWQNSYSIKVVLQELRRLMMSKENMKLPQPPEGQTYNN
T1 sequence (P63146 whole entry): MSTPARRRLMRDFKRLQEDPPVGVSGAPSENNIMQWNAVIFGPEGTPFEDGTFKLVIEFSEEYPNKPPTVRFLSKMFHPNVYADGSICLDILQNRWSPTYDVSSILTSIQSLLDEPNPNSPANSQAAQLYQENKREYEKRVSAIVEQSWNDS
Sequence of Rad6–Rad18 interaction (P63146 whole entry): as above
Sequence of Rad18 (Homo sapiens, UniProt P63146) (P63146 whole entry): as above
Sequence of Rad6–Ubr1 interaction (P63146 whole entry): as above
Sequence of Rad18 (Homo sapiens, UniProt Q9NS91) (Q9NS91 whole entry): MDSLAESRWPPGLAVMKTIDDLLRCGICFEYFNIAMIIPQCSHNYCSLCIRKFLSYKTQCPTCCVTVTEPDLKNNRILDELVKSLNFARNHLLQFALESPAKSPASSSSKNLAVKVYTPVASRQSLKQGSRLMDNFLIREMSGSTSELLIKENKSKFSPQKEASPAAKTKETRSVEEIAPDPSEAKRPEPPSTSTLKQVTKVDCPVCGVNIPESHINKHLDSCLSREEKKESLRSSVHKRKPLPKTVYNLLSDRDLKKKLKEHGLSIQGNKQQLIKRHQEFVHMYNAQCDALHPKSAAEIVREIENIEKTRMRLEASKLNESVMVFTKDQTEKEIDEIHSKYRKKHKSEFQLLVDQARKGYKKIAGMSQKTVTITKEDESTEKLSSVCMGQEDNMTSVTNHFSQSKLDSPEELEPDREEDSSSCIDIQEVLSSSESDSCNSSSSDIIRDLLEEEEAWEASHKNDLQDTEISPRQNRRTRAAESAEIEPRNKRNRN

O=c1cc2oc3cc(O)c(O)cc3c(-c3ccccc3O)c-2cc1O [NSC 9037, 2,6,7-trihydroxy-9-(2-hydroxyphenyl)-3H-xanthen-3-one]
IC50 (Rad6–Rad18 interaction): 6.19 µM | disruption of the Rad6–Rad18 interaction (Rad6–Rad18 interaction): disrupt | Mms2–Ubc13∼Ub inhibition on gel (Mms2–Ubc13): No inhibition on gel at 100 μM | IC50 (HeLa cells): 62.2 µM | Kd (Rad6 [1]): 3.79 ± 2.94 µM | binding to Rad18 (Rad18 [2]): very weak binding | IC50 (Rad6–Ubr1 interaction): > 50 µM | IC50 (Rad18 [3]): 4.46 µM | inhibition of Rad18 autoubiquitination (Rad18 [3]): inhibit | IC50 (Uba1): > 100 µM | IC50 (Rad6 [4]): 8.9 µM | inhibition of formation of the Rad6∼ubiquitin thioester conjugate (Rad6 [4]): inhibit | IC50 (PCNA ubiquitination): 4.54 µM

Cc1cc2c(-c3ccccc3)c3cc(C)c(N)cc3nc2cc1N [NSC 71947, 2,7-dimethyl-9-phenylacridine-3,6-diamine]
Mms2–Ubc13∼Ub inhibition on gel (Mms2–Ubc13): No inhibition on gel at 100 μM | IC50 (HeLa cells): 11.8 µM | IC50 (Uba1): > 100 µM | IC50 (PCNA ubiquitination): 24.9 µM

CN(C)c1ccc(-c2c3cc(O)c(=O)cc-3oc3cc(O)c(O)cc23)cc1 [NSC 80693, 9-[4-(dimethylamino)phenyl]-2,6,7-trihydroxy-3H-xanthen-3-one]
IC50 (Rad6–Rad18 interaction): 14.6 µM | disruption of the Rad6–Rad18 interaction (Rad6–Rad18 interaction): disrupt | Mms2–Ubc13∼Ub inhibition on gel (Mms2–Ubc13): No inhibition on gel at 100 μM | IC50 (HeLa cells): 7.67 µM | Rad6–Ubr1 inhibition by Alpha (Rad6–Ubr1 interaction; at 50 μM): Little inhibition by Alpha at 50 μM | IC50 (Rad18 [3]): 13.2 µM | inhibition of Rad18 autoubiquitination (Rad18 [3]): inhibit | IC50 (Uba1): > 100 µM | IC50 (Rad6 [4]): 91.8 µM | inhibition of formation of the Rad6∼ubiquitin thioester conjugate (Rad6 [4]): inhibit | IC50 (PCNA ubiquitination): 4.28 µM

O=C(O)c1cccc(-c2c3ccc(=O)cc-3oc3cc(O)ccc23)c1 [NSC 119888, 3-(3-hydroxy-6-oxoxanthen-9-yl)benzoic acid]
Mms2–Ubc13∼Ub inhibition on gel (Mms2–Ubc13): No inhibition on gel at 100 μM | IC50 (HeLa cells): 75.3 µM | IC50 (Uba1): 53.8 µM | inhibition of Uba1∼ubiquitin thioester formation (Uba1): inhibit

O=C(O)c1ccc(-c2c3ccc(=O)cc-3oc3cc(O)ccc23)cc1 [NSC 119891, 4-(3-hydroxy-6-oxoxanthen-9-yl)benzoic acid]
Mms2–Ubc13∼Ub inhibition on gel (Mms2–Ubc13): No inhibition on gel at 100 μM | IC50 (HeLa cells): 208 µM | IC50 (Uba1): > 100 µM

O=C(O)C1CC=CCC1c1c2ccc(=O)cc-2oc2cc(O)ccc12 (stereo not drawn) [NSC 157411, 6-(3-Hydroxy-6-oxo-xanthen-9-yl)cyclohex-3-ene-1-carboxylic acid]
Mms2–Ubc13∼Ub inhibition on gel (Mms2–Ubc13): No inhibition on gel at 100 μM | IC50 (HeLa cells): 428 µM | IC50 (Uba1): 24.8 µM | inhibition of Uba1∼ubiquitin thioester formation (Uba1): inhibit | IC50 (PCNA ubiquitination): 8.44 µM

COc1ccc(C2c3cc(O)c(OC)cc3Oc3cc(OC)c(O)cc32)cc1 [NSC 348718, 3,6-dimethoxy-9-(4-methoxyphenyl)-9H-xanthene-2,7-diol]
Mms2–Ubc13∼Ub inhibition on gel (Mms2–Ubc13): No inhibition on gel at 100 μM | IC50 (HeLa cells): 27.7 µM | IC50 (Uba1): > 100 µM | effect on PCNA ubiquitination (PCNA ubiquitination; Figure 3G): inactive | IC50 (PCNA ubiquitination): > 100 µM
